Measured values taken from patent US20220387467A1, “USE OF SGLT2 INHIBITORS TO TREAT PRIMARY BILLIARY CHOLANGITIS” (AVOLYNT, priority 2019, published 2022).
“Also recorded” adds a separate entry of the source.

Legend:
TIA mice = experiment: TIA mouse model of liver and biliary disease resembling PBC/PSC, H&E liver histology and survival; assay type: in vivo; details: for inflammation at the interface between the hepatic parenchyma and the portal tracts (interface hepatitis) / proliferation of bile ductules (bile ductular proliferation) / periportal and biliary inflammation: TIA mice at 11 weeks, H&E liver sections, vs untreated TIA mice; for inflammation at the interface between the hepatic parenchyma and the portal tracts (interface hepatitis): 0.03% in chow for 7 weeks; for proliferation of bile ductules (bile ductular proliferation) / periportal and biliary inflammation: 0.03% in chow from 4 weeks of age
Source text: The following Examples describe the utilization of a murine model of liver damage to assess the effectiveness of a treatment regimen based on the oral administration of remogliflozin etabonate. The murine model is based on mice that are deficient for the expression of tumor necrosis factor alpha (“TNFα”), interleukin 10 (“IL-10”), and activation-induced cytidine deaminase (“AICDA”). As the mice are deficient in TNF, IL-10, and AICDA, they are referred to, herein, as “TIA” mice. These liver outcomes in these animals also closely resemble that of PBC.
Moreover, as AICDA is required for immunoglobulin (“Ig”) class switching, TIA mice lack IgG and IgA, a phenotype analogous to humans with hyper-IgM syndrome. Therefore, with the combination of AICDA deficiency with the risk factors associated with TNFα and IL-10 deficiencies, TIA mice also develop liver and biliary inflammation reminiscent of PSC and PBC symptoms in humans. Accordingly, the TIA model is useful for investigating mechanisms that act early in PBC pathogenesis, as well as treatments that can prevent progression to PBC and PSC.
Example 1. Orally-administered remogliflozin etabonate reduces inflammatory cell infiltration, bile ductular proliferation, and interface hepatitis in TIA mice. TIA mice were created by first breeding TNFα knock out (“KO”) C57BL/6 mice, (strain B6.129S-Tnf^tm1Gkl/J, stock #005540, Jackson Laboratories, Bar Harbor, Me.) with IL-10 KO mice (strain B10.129P2(B6)-IL10^tm1Cgn/J, Stock No. 002251, Jackson Laboratories) to produce a population of mice that were deficient in TNFα and IL-10. Because mice with a TNFα −/− and IL10 −/− genotype spontaneously develop inflammatory bowel disease (“IBD”) (Hale 2012), a condition associated with poor breeding success (Nagy 2016), the mice needed for further breeding to generate an AICDA population, were generated by breeding offspring with a TNFα and IL10+/− genotype with AICDA −/− mice, which were obtained from Dr. Tasuku Honjo (Muramatsu 2000)), to produce a population of TNFα −/−, IL10 −/−, and AICDA+/−(“TI-hetA”) males and females. In turn, TI-hetA pairs were bred to generate populations that were 25% TIA mice, and 50% non-colitis-susceptible TI-hetA littermates that could be used as control populations. All populations were exposed to the same environment from birth. The mice were housed in polycarbonate micro-isolator cages, in individually ventilated racks, under barrier conditions that excluded all known pathogens, including Helicobacter pylori and Norovirus. Mice had ad libitum access to water, and to a standard diet (PicoLab Mouse Diet 20/5058, LabDiet, St. Louis, Mo., USA).
At four (4) weeks of age, TIA (40) and TI-hetA (22) mice were randomized into experimental groups that received either a standard diet (20 TIA and 12 het), or a standard diet formulated 0.03% remogliflozin etabonate (20 TIA and 10 het) (Avolynt Inc., USA). The mice were maintained on this diet for seven (7) weeks. Body weights were obtained three (3) times, weekly, to assess the general health of mice, and to track the development of inflammatory bowel disease (IBD). Glycosuria in the experimental groups was assessed by applying freshly voided urine directly to the glucose test patch on an Accutest® URS-10 urinary reagent test strips (Jant Pharmaceutical Corp., Encino, Calif., USA). Mice were humanely euthanized before reaching the experimental endpoint, of eleven (11) weeks of age, if they lost >15% body weight, or developed rectal prolapse.
To characterize biliary lesions in TIA mice at the end of the 7 week treatment period, liver tissue was obtained from the remogliflozin-treated, and untreated groups, for histologic examination. The excised liver tissue was fixed in Carnoy's fixative solution, and processed into paraffin blocks. The paraffin blocks were sectioned, and stained with Hematoxylin and eosin (H&E) for pathologic analysis. The H&E-stained sections were scored by an American Board of Pathology-certified pathologist. […]

[1] = Plasma remogliflozin after oral immediate release (IR) tablet; assay type: in vivo
Source text: Oral dosage forms according to the invention are typically tablets or capsules. Tablets can be obtained by direct compression of the mixed components of a dosage form, including a therapeutically effective amount of an SGLT2 inhibitor, and selected excipients, like cellulose derivatives, metacrylates, chitosan, carboxymethylstarch, or mixtures thereof. For example, a compressed tablet according to the invention, can be prepared by granulating a SGLT2 inhibitor with microcrystalline cellulose and croscarmellose sodium with a water and povidone solution. The resulting granules are dried, milled, and then blended with mannitol, microcrystalline cellulose, and croscarmellose. The blend is lubricated with magnesium stearate and compressed. […] Indeed, Tmax for an IR remogliflozin etabonate oral dosage form according to the invention occurs at 1 hour, or less, following ingestion of the dosage form by a subject.

CCOC(=O)OC[C@H]1O[C@@H](Oc2nn(C(C)C)c(C)c2Cc2ccc(OC(C)C)cc2)[C@H](O)[C@@H](O)[C@@H]1O [remogliflozin etabonate]
number of TIA mice that required early euthanasia (TIA mice; Remo group versus control group, 7 week study): no statistical difference | early death (TIA mice; Remo group versus control group, not statistically significant): trend toward decreased early death | inflammation at the interface between the hepatic parenchyma and the portal tracts (interface hepatitis) (TIA mice): reduces | inflammation at the interface between the hepatic parenchyma and the portal tracts (interface hepatitis) (TIA mice; listed as remogliflozin): less inflammation | proliferation of bile ductules (bile ductular proliferation) (TIA mice): reduces | periportal and biliary inflammation (TIA mice; listed as Remo): decrease in periportal and biliary inflammation | proliferation of bile ductules (bile ductular proliferation) (TIA mice; listed as Remo): decrease in proliferation of bile ductules | periportal and biliary inflammation (TIA mice; listed as remogliflozin): less inflammation | proliferation of bile ductules (bile ductular proliferation) (TIA mice; listed as remogliflozin): less proliferation of bile ductiles | development and progression of liver and biliary disease (TIA mice; TIA mice, 0.03% remogliflozin etabonate in diet for 7 weeks from 4 weeks of age, vs standard diet): prevents the progression of PBC disease pathology; also recorded: markedly less development and progression of liver and biliary disease | inflammatory cell infiltration (TIA mice; TIA mice, oral, 0.03% in diet for 7 weeks): reduces | Tmax ([1]; IR remogliflozin etabonate oral dosage form, following ingestion): ≤ 1 h | remogliflozin plasma concentration after clearance ([1]; compressed IR tablet, 350 mg remogliflozin etabonate, oral, after 3 hrs): 40 ng/mL | maximum remogliflozin plasma concentration (Cmax) ([1]; compressed IR tablet, 350 mg remogliflozin etabonate, oral, at 1 hr post-ingestion): 160 ng/mL
